Source: article PMC8219027, “A small-molecule inhibitor of the BRCA2-RAD51 interaction modulates RAD51 assembly and potentiates DNA damage-induced cell death” (Cell Chemical Biology, 2021)

Assays:
[1] = tested on: T24/83; experiment: cells; conditions: Homo sapiens, T24/83, read-out: Absolute EC50, growth inhibition
[2] = tested on: U118MG; experiment: cells; conditions: Homo sapiens, U-118-MG, read-out: Absolute EC50, growth inhibition
[3] = biological target: T1, CYP450 2C9 (Homo sapiens, UniProt P11712); experiment: CYP450 inhibition; assay type: in vitro ADME
T1 construct: Cyprotex (contract data)

[4] = tested on: T.Tn; experiment: cells; conditions: Homo sapiens, read-out: Absolute EC50, growth inhibition
[5] = Mouse oral screen; conditions: male, CD-1, mouse, in vivo, 50 mg/kg
[6] = tested on: 5637; experiment: cells; conditions: Homo sapiens, read-out: Absolute EC50, growth inhibition
[7] = Mouse iv pharmacokinetics; conditions: male, CD-1, mouse, in vivo, 1 mg/kg
[8] = tested on: HepG2; experiment: cells; conditions: Homo sapiens, HepG2, read-out: Absolute EC50, growth inhibition
[9] = tested on: HUVEC; experiment: cells; conditions: Homo sapiens, read-out: Absolute EC50, growth inhibition
[10] = biological target: T2, CYP450 1A2 (Homo sapiens, UniProt P05177); experiment: CYP450 inhibition; assay type: in vitro ADME
T2 construct: Cyprotex (contract data)

[11] = Microsomal intrinsic clearance; conditions: rat, rat microsomes
[12] = tested on: HCT116 cells (BRCA2 wild-type); experiment: SRB growth inhibition assay, combination of CAM833 and PARP1 inhibitor AZD2461; assay type: cell-based, human; conditions: 96 h
Method: (§1) Adherent cell lines (HCT116 and A549 cells) were seeded into flat-bottomed tissue culture 96-well plates in a volume of 150 μL of growth medium. HCT116 cells were seeded at 750 cells per well and A549 cells were seeded at 1000 cells per well. After 24 hours, compounds dissolved in DMSO were diluted in growth medium and were added to cells such that the final DMSO concentration was 1% (v/v) and the final volume in the well was 200 μL. Cells were then incubated in the presence of compound for 96 hours before fixation.
(§2) Medium was removed from cells and 100 μL of cold 1% (v/v) trichloroacetic acid was added for 30 minutes at 4 degrees. The plates were washed three times in tap water and left to dry at room temperature. The fixed cells were stained in a 0.057% sulphorodamine B/1% acetic acid solution (w/v) and incubated at room temperature with agitation for 30 minutes after which the dye was removed and the plates washed in 1% (v/v) acetic acid and left to dry. The dye was then solubilised in 10 mM Tris solution (pH8) and incubated for 30 minutes under agitation. The plates were then read on a PHERAstar plus plate reader (BMG Labtech) using the fluorescence intensity module (540-590 nm). Growth inhibition was calculated relative to DMSO controls and GI50 values were calculated using Graphpad Prism.
For the PARP inhibitor experiments, the SRB method was used as described above to measure growth inhibition with the exception that cells were seeded into 150 μl medium and then a combination of either 25 μl of CAM833, AZD2461 (SelleckChem; #S7029) or DMSO was added to give a total volume of 200 ul in the well.

[13] = tested on: Calu3; experiment: cells; conditions: Homo sapiens, Calu-3, read-out: Absolute EC50, growth inhibition
[14] = tested on: Mia-pa-ca2; experiment: cells; conditions: Homo sapiens, MIA PaCa-2, read-out: Absolute EC50, growth inhibition
[15] = biological target: T3, CYP450 2D6 (Homo sapiens, UniProt P10635); experiment: CYP450 inhibition; assay type: in vitro ADME
T3 construct: Cyprotex (contract data)

[16] = Microsomal intrinsic clearance; conditions: mouse, mouse microsomes
[17] = tested on: HCT116 cells; experiment: SRB growth inhibition assay; assay type: cell-based, human; conditions: for IC50 / GI50: Homo sapiens; for IC50: HCT-116, 96 h, Figure 6D (cell line not given); for GI50: HCT-116, geometrical mean, n = 18
Method: as §1, §2

[18] = tested on: SCaBER; experiment: cells; conditions: Homo sapiens, read-out: Absolute EC50, growth inhibition
[19] = tested on: PANC1; experiment: cells; conditions: Homo sapiens, PANC-1, read-out: Absolute EC50, growth inhibition
[20] = tested on: MDA-MB-453; experiment: cells; conditions: Homo sapiens, MDA-MB-453, read-out: Absolute EC50, growth inhibition
[21] = tested on: SK-MEL-24; experiment: cells; conditions: Homo sapiens, SK-MEL-24, read-out: Absolute EC50, growth inhibition

T2 sequence (P05177 whole entry): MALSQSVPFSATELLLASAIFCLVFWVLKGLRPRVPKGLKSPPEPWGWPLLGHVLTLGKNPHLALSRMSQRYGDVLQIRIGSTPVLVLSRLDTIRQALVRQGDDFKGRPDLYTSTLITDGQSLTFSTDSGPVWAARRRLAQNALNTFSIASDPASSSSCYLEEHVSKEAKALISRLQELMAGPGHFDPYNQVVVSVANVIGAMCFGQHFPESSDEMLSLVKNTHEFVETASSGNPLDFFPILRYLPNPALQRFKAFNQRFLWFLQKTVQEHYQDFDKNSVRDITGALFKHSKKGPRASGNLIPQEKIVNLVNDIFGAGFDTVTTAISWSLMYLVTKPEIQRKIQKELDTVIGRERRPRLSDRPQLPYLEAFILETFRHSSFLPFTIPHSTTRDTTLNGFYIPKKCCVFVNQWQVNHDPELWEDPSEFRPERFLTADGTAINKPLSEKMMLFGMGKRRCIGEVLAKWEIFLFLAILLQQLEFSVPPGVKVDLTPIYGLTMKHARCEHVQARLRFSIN
T3 sequence (P10635 whole entry): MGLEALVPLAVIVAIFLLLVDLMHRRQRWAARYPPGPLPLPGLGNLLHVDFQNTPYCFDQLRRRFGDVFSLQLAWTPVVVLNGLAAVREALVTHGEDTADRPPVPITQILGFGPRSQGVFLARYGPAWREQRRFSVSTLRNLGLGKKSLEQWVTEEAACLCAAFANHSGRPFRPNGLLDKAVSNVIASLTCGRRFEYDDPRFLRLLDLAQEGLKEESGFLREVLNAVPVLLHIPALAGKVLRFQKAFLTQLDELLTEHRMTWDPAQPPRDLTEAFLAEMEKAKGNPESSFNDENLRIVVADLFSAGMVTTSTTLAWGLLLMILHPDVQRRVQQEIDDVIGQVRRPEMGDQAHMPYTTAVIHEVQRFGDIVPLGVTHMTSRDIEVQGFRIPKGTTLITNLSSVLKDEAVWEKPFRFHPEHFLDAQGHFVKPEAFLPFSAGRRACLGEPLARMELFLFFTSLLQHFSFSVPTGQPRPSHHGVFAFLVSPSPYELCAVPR
T1 sequence (P11712 whole entry): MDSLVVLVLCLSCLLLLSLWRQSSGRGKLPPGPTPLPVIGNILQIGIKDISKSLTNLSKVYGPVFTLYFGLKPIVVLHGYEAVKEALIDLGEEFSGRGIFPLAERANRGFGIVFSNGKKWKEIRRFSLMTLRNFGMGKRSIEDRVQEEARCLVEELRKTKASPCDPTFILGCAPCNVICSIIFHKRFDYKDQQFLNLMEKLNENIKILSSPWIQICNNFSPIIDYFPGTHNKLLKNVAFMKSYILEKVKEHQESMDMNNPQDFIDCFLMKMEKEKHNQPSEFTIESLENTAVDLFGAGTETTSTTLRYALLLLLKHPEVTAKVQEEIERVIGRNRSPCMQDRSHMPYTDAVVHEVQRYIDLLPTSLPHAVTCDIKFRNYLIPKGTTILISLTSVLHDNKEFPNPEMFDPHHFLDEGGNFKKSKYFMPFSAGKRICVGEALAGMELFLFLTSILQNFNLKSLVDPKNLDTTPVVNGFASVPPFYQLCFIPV

Structure (SMILES): COc1ccc([C@H](C)NC(=O)[C@@H]2C[C@@H](O)CN2C(=O)CNC(=O)c2ccc3cc(F)ccc3n2)c(Cl)c1 [CAM833, N-(2-((2S,4R)-2-(((S)-1-(2-chloro-4-methoxyphenyl)ethyl)carbamoyl)-4-hydroxypyrrolidin-1-yl)-2-oxoethyl)-6-fluoroquinoline-2-carboxamide]
- EC50 [1]: 96.7 µM
- EC50 [2]: 90.3 µM
- IC50 [3]: > 25 µM
- EC50 [4]: 55.8 µM
- Cmax [5]: 8320 ng/mL
- bioavailability [5]: 44%
- EC50 [6]: 84.5 µM
- Vd [7]: 2.51 L/kg
- clearance [7]: 44.6 mL/min/kg
- half-life [7]: 86.4 min
- EC50 [8]: 68.1 µM
- EC50 [9]: 133 µM
- IC50 [10]: > 25 µM
- half-life [11]: 47.9 min
- microsomal CLint [11]: 28.9 ± 4.16 µL/min/mg
- growth inhibition by combination with AZD2461 (in words) ([12]; HCT116, BRCA2 wild-type): potentiated the growth-suppressive effects of PARP1 inhibition
- growth inhibition by CAM833 alone (in words) ([12]; HCT116, fixed dose 10 μM or 20 μM): little effect
- EC50 [13]: 83.3 µM
- EC50 [14]: 68.6 µM
- IC50 [15]: > 25 µM
- half-life [16]: 43.1 min
- microsomal CLint [16]: 32.2 ± 2.99 µL/min/mg
- GI50 with 3 Gy IR lower than GI50 for compound alone ([17]; HCT116): more than 2 fold
- IC50 ([17]; 0 Gy IR, SRB 96 h): 63.5 µM
- IC50 ([17]; 1 Gy IR, SRB 96 h): 30.4 µM
- IC50 ([17]; 2 Gy IR, SRB 96 h): 13 µM
- IC50 ([17]; 3 Gy IR, SRB 96 h): 11.8 µM
- GI50 ([17]; HCT116, CAM833 alone, 96 h exposure): 38 µM
- GI50 ([17]; HCT116, combined with 3 Gy IR): 14 µM
- effect of combination with increasing doses of IR on growth suppression (in words) ([17]; fixed 10 μM dose, 0 to 3 Gy IR, SRB 96 h): potentiates
- EC50 [18]: 47 µM
- EC50 [19]: 96 µM
- EC50 [20]: 48 µM
- EC50 [21]: 144 µM
